Data as given in patent US11000518B2, “Use of combination of VEGFR inhibitor and PARP inhibitor in preparation of medicament for treating gastric cancer” (Jiangsu Hengrui Medicine Co., Ltd., priority 2016, dated 2021).
Where a name gives a salt, the structure may show the parent alone.

Columns and labels:
[1] = system: human gastric cancer PDX model STO #069; experiment: Efficacy on subcutaneous implantation tumor of human gastric cancer PDX model STO #069 tumor-bearing nude mice; assay type: in vivo, BALB/c nude mice
Procedure: Efficacy of the Composition of the Present Invention on the Subcutaneous Implantation Tumor of Human Gastric Cancer PDX Model STO #069 Tumor-Bearing Nude Mice
Test animals: BALB/c nude mice, 6-7 weeks old, female, purchased from Beijing Vital River Laboratory Animal Technology Co., Ltd., with laboratory animals use license No.: SCXK (Shanghai) 2015-0022 and animal certificate No.: 11400700166108, feeding condition: SPF grade.
Control group: solvent group.
Compound A: compound A (100 mg) was weighed, added with 0.5% carboxymethylcellulose solution (10 mL), vortex-mixed or ultrasonic-mixed until the solution was clear, and stored at 4° C., and the dose volume was 5 mL/kg;
Compound B: compound B (540 mg) was weighed and dissolved in purified water (31 mL), then added with 0.2% Tween 80 (0.18 mL) and 10% PEG 400 (9.0 mL), vortex-mixed until the solution was clear, followed by adding purified water to a solution volume of 90 mL and storing at 4° C., and the dose volume was 5 mL/kg;
Cisplatin: cisplatin (3 mg) was weighed and dissolved in normal saline (6.0 mL), the concentration of the solution was 0.5 mg/mL, and the solution was prepared to a total of 6.0 mL, stored at 4° C., and filtrated with a 0.22 μm Millipore Millex® membrane before each use;
Paclitaxel: paclitaxel (6 mg/mL, 1.5 mL) was formulated into a solution (1.5 mg/mL) with normal saline (6.0 mL) and stored at 4° C., which was freshly formulated before each use.
After the tumor grew to 600-700 mm^3, it was passaged in the nude mice, which were defined as passage 0 (P0); after implantation of tumor passage 0 (P0), the mice were defined as passage 1 (P1); the passage was thus defined according to the order continuously implanted in nude mice; the next passage generated from FP5 was defined as FP6, and so on; and the FP6 tumor tissue was used for this study.
(1) Tumor implantation: the STO #069 FP6 tumor tissue (which was pathologically diagnosed as gastric poorly differentiated adenocarcinoma) was cut into small pieces (˜30 mm^3), and implanted subcutaneously into the right side of the nude mice. After the mean tumor size was close to 150-250 mm^3, the mice were grouped and treated, a total of 7 groups, each group of 6 tumor-bearing mice.
(2) Observation and recording: the tumor volume was measured 2-3 times per week, the mice were weighed, and the data were recorded.
The tumor volume was measured twice a week with a caliper and measured in two dimensions, the unit is mm^3;
V=½×a×b^2, wherein a and b represented length and width, respectively.
T/C (%)=(T−T0)/(C−C0)×100%, wherein T and C represented the tumor volumes of the administration group and the solvent group at the end of the experiment, respectively; and T0 and C0 represented the tumor volumes of the administration group and the solvent group at the start of the experiment, respectively.
The endpoint of the experiment: The endpoint of the efficacy study was set to 21 days. If the tumor volume>2000 mm^3, or if a nude mouse lost more than 20% of its weight or was very ill and cannot get enough food or water, the nude mouse would be removed from the experimental group and euthanized.

[2] = system: advanced prostate cancer patients with DNA repair gene mutations; settings: phase II clinical trial; cited from earlier work
[3] = D 21, compound A 50 mg/kg PO QD × 21, compound B 30 mg/kg PO BID × 21, cisplatin 5 mg/kg IP QW × 3, paclitaxel 15 mg/kg IP QW × 3

Structure (SMILES)	Partial regression ([1]; 6 animals per group, same doses as TGI column)	Mean tumor volume (mm^3) (Mean ± SEM) D 0 ([1]; D 0 = first administration time (baseline), STO#069 nude mice, n = 6)	% T/C D 21 [1, 3] [%]	% tumor growth inhibition (TGI) D 21 [1, 3] [%]	Mean tumor volume (mm^3) (Mean ± SEM) D 21 [1, 3]	tumor inhibition rate ([1]; Day 21 of administration, compound A 50 mg/kg QD×21, compound B 30 mg/kg BID×21, cisplatin 5 mg/kg QW×3, paclitaxel 15 mg/kg QW×3) [%]	response [2] [%]
N#CC1(c2ccc(NC(=O)c3cccnc3NCc3ccncc3)cc2)CCCC1 [Compound A, Apatinib mesylate]	0	185.4 ± 17.0	44.68	55.32	465.9 ± 17.0	55.32	
O=C(c1cc(Cc2n[nH]c(=O)c3ccccc23)ccc1F)N1CCN(C(=O)C2CC2)CC1 [Olaparib]							88
